Like-named read-outs stand apart in the source and are kept apart here. One block for each molecule: values may come before it.
Legend:
[1] = cited from earlier work
[2] = cited from earlier work; remark: listed apart in the source
[3] = people with high-risk SMM, oral; cited from earlier work
[4] = remark: listed apart in the source
Method: Next, the solubility of lenalidomide H1 was determined in silicone polymer-based pressure sensitive adhesives and acrylic polymer-based pressure sensitive adhesives. Pressure sensitive adhesive polymers are the major component of the pressure sensitive adhesives matrix patches and typically constitute 50%-85% of the formulation.

[5] = FIG. 10
Method: In vitro permeability of lenalidomide through human cadaver skin was conducted using in vitro franz diffusion cells to identify potential permeation enhancers for lenalidomide. Donor compartment was loaded with Lenalidomide solution or gel.
Lenalidomide H1 solutions were prepared in following different solvents Lactic acid, Dimethyl sulfoxide, NMP, Levulinic acid, Super refined PEG 400, Tween 40, Polysorbate 80.
Lenalidomide gels were prepared using a following solvent system composition (Table 7). Gels were made with 10 different permeation enhancers.

Solubility (in DMSO, room temperature): 10-20%
Solubility (in NMP, room temperature): about 30 % w/w
Solubility (in esters): less than 0.5%
Solubility (in glycols): less than 2%
Solubility (in two organic acids, Lactic acid and levulinic acid): more than 5%
SMILES: Nc1cccc2c1CN(C1CCC(=O)NC1=O)C2=O (stereo not drawn) [Lenalidomide, 3-(4-amino-1-3-dihydro-1-oxo-2H-isoindol-2yl)-2,6-piperidinedione]
solubility of the LLD in solution [1]: 400 to 500 µg/mL
log P [2]: −0.4
discontinued due to drug-related side effects [3]: 40%
three-year progression-free survival [3]: 91%

Lenalidomide H1 solubility ([4]; in BIO-PSA 7-4202 (silicone PSA)): Less than 0.5% W/W
Lenalidomide H1 solubility ([4]; in Duro-Tak 87-2052 (acrylic PSA)): Less than 0.5% W/W
Lenalidomide H1 solubility ([4]; in Duro-Tak 87-2074 (acrylic PSA)): Less than 0.5% W/W
Lenalidomide H1 solubility ([4]; in Duro-Tak 87-2194 (acrylic PSA)): Less than 0.5% W/W
Lenalidomide H1 solubility ([4]; in Duro-Tak 87-2516 (acrylic PSA)): approximately 0.5% W/W
Lenalidomide H1 solubility ([4]; in Duro-Tak 87-2852 (acrylic PSA)): Less than 0.5% W/W
Lenalidomide H1 solubility ([4]; in Duro-Tak 87-4098 (acrylic PSA)): Less than 0.5% W/W
Lenalidomide H1 solubility ([4]; in Duro-Tak 87-9301 (acrylic PSA)): Less than 0.5% W/W
rate of lenalidomide permeation ([5]; solution in Lactic acid): highest rate
rate of lenalidomide permeation ([5]; solution in Levulinic acid): negligible permeation
rate of lenalidomide permeation ([5]; solutions in NMP and DMSO): followed by NMP and DMSO
rate of lenalidomide permeation ([5]; solutions in SR PEG 400, TWEEN 40, Polysorbate 80): insignificant to no permeation
Solubility (Aquasolve HPMC-AS MF (0.25 G) + Solvent system Acetone:Methanol (1:1)): 1.2 % W/W
Solubility (Eudragit + Solvent system Acetone:Methanol (1:1)): 0.9 % W/W
Solubility (Kollidon 30 (0.5 G) + Solvent system Acetone:Methanol (1:1)): 2.2 % W/W
Solubility (Kollidon 90 F (0.5 G) + Solvent system Acetone:Methanol (1:1)): 2.0 % W/W
Solubility (Kollidon VA 64 (0.5 G) + Solvent system Acetone:Methanol (1:1)): 2.1 % W/W
Solubility (Kollisolv P124 Geismer (0.27 G) + Solvent system Acetone:Methanol (1:1)): 0.9 % W/W
Solubility (in Acetone): 0.2 % W/W
Solubility (in Acetonitrile): 0.3 % W/W
Solubility (in Dimethyl sulfoxide): 20.7 % W/W
Solubility (in Ethanol 190 Proof): 0.2 % W/W
Solubility (in Ethyl acetate): <0.1 % W/W
Solubility (in Heptane): <0.1 % W/W
Solubility (in Isooctadecanoic acid): <0.1 % W/W
Solubility (in Lactic acid): 9.3 % W/W
Solubility (in Lauryl Lactate): 0.1 % W/W
Solubility (in Levulinic acid): 5.5 % W/W
Solubility (in Methanol): 0.3 % W/W
Solubility (in Methanol:Acetone (1:1)): 0.9 % W/W
Solubility (in Methyl Laurate): <0.1 % W/W
Solubility (in NMP): 29.3 % W/W
Solubility (in Propylene Glycol): 0.4 % W/W
Solubility (in Propylene Glycol monolaurate): <0.1 % W/W
Solubility (in Super refined PEG 400): 1.6 % W/W
Solubility (in Toluene): <0.1 % W/W
SMILES: Nc1cccc2c1CN(C1CCC(=O)NC1=O)C2=O (stereo not drawn) [Lenalidomide H1]

From patent US20220395468A1, “Transdermal Drug Delivery Systems for Administration of a Therapeutically Effective Amount of Lenalidomide and Other Immunomodulatory Agents” (Starton Therapeutics, Inc., priority 2021, published 2022)
